Source: US20250376472A1, “3-(PHENYLSULFONYL)-[1,2,3]TRIAZOLO[1,5A]QUINAZOLIN-5(4H)-ONE DERIVATIVES” (priority 2022, published 2025)

How the values were obtained:
AgrA [1] = target: T1, AgrA (Staphylococcus aureus, UniProt P0A0I7); assay: cell-based; set-up: species or system S. aureus; conditions: for Ratio IC50 (in presence of HSA)/IC50 (in absence of HSA): 40 mg/mL HSA versus no HSA
T1 construct: endogenous in cells; host or cells: S. aureus USA300 strain UAMS-1625 carrying a P3-lacZ reporter plasmid
T1 sequence (P0A0I7 whole entry): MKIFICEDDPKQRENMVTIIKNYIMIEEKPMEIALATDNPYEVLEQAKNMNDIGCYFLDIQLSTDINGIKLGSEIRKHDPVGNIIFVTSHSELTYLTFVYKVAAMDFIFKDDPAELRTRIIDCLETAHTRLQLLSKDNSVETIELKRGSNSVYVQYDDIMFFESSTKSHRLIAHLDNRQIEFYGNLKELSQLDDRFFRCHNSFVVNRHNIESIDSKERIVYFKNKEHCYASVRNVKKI

S. aureus [2] = conditions: after multiple passages with Savirin; cited from earlier work
MRSA USA300 type strain = conditions: mice infected with MRSA USA300 type strain, applied multiple times; cited from earlier work
S. aureus [3] = conditions: cited from earlier work
AgrA [4] = target: T1, AgrA; conditions: all four agr groups; cited from earlier work
red blood cell (RBC) = conditions: cited from earlier work
[5] = IC50 at 40 mg/mL HSA, LB medium supplemented with human serum albumin 40 mg/mL
[6] = IC50 without HSA, LB medium, no human serum albumin, 18 hours incubation
[7] = LB medium supplemented with human serum albumin 40 mg/mL
[8] = LB medium, no human serum albumin, 18 hours incubation

## Cc1ccc(S(=O)(=O)c2nnn3c2[nH]c(=O)c2ccc(N4CCN(CC(=O)N5CC(N)C5)CC4)cc23)c(C)c1 [Compound 139]
AgrA [1]; [5]
  IC50: < 18.2 µM
AgrA [1]; [6]
  IC50: 1.82 to 9.08 µM

## Cc1ccc(S(=O)(=O)c2nnn3c2[nH]c(=O)c2ccc(N4CCN(CC(=O)NC5CCNCC5)CC4)cc23)c(C)c1 [Compound 140]
AgrA [1]; [5]
  IC50: 17.3 to 86.4 µM
AgrA [1]; [6]
  IC50: 1.73 to 8.64 µM

## Cc1ccc(S(=O)(=O)c2nnn3c2[nH]c(=O)c2ccc(N4CCN(CC(=O)N5CCC(N)CC5)CC4)cc23)c(C)c1 [Compound 141]
AgrA [1]; [5]
  IC50: < 17.3 µM
AgrA [1]; [6]
  IC50: 1.73 to 8.64 µM

## Cc1ccc(S(=O)(=O)c2nnn3c2[nH]c(=O)c2ccc(N4CCN(CC(=O)NC5CCCNC5)CC4)cc23)c(C)c1 (stereo not shown) [Compound 142]
AgrA [1]; [5]
  IC50: < 17.3 µM
AgrA [1]; [6]
  IC50: 1.73 to 8.64 µM

## Cc1ccc(S(=O)(=O)c2nnn3c2[nH]c(=O)c2ccc(N4CCN(CC(=O)N5CCCC(N)C5)CC4)cc23)c(C)c1 (stereo not shown) [Compound 143]
AgrA [1]
  Ratio IC50 (in presence of HSA)/IC50 (in absence of HSA): +++ (+++: ratio ≤ 25)
AgrA [1]; [7]
  IC50 at 40 mg/mL HSA: +++ (+++: IC50 ≤ 10 μg/mL)
AgrA [1]; [8]
  IC50 without HSA: ++ (++: 1 μg/mL < IC50 ≤ 5 μg/mL)

## Cc1ccc(S(=O)(=O)c2nnn3c2[nH]c(=O)c2ccc(N4CCN(CC(=O)N5CCCC(CN)C5)CC4)cc23)c(C)c1 (stereo not shown) [Compound 144]
AgrA [1]; [5]
  IC50: < 16.9 µM
AgrA [1]; [6]
  IC50: 1.69 to 8.44 µM

## Cc1ccc(S(=O)(=O)c2nnn3c2[nH]c(=O)c2ccc(N4CCN(CC(=O)N5CCCCC5CN)CC4)cc23)c(C)c1 (stereo not shown) [Compound 145]
AgrA [1]; [5]
  IC50: 16.9 to 84.4 µM
AgrA [1]; [6]
  IC50: 1.69 to 8.44 µM

## Cc1ccc(S(=O)(=O)c2nnn3c2[nH]c(=O)c2ccc(N4CCN(CC(=O)N5CCCC(CCN)C5)CC4)cc23)c(C)c1 (stereo not shown) [Compound 146]
AgrA [1]
  Ratio IC50 (in presence of HSA)/IC50 (in absence of HSA): +++ (+++: ratio ≤ 25)
AgrA [1]; [7]
  IC50 at 40 mg/mL HSA: +++ (+++: IC50 ≤ 10 μg/mL)
AgrA [1]; [8]
  IC50 without HSA: ++ (++: 1 μg/mL < IC50 ≤ 5 μg/mL)

## Cc1ccc(S(=O)(=O)c2nnn3c2[nH]c(=O)c2ccc(N4CCN(CC(=O)N5CCC(CN)CC5)CC4)cc23)c(C)c1 [Compound 147]
AgrA [1]; [5]
  IC50: 16.9 to 84.4 µM
AgrA [1]; [6]
  IC50: 1.69 to 8.44 µM

## Cc1ccc(S(=O)(=O)c2nnn3c2[nH]c(=O)c2ccc(N4CCN(CC(=O)N5C[C@H]6CNC[C@H]6C5)CC4)cc23)c(C)c1 [Compound 153]
AgrA [1]; [5]
  IC50: 16.9 to 84.6 µM
AgrA [1]; [6]
  IC50: 1.69 to 8.46 µM

## Cc1ccc(S(=O)(=O)c2nnn3c2[nH]c(=O)c2ccc(N4CCCN(CC(=O)N5CCNCC5)CC4)cc23)c(C)c1 [Compound 161]
AgrA [1]; [5]
  IC50: < 17.3 µM
AgrA [1]; [6]
  IC50: 1.73 to 8.64 µM

## Cc1ccc(S(=O)(=O)c2nnn3c2[nH]c(=O)c2ccc(N4CCCN(CCC(=O)N5CCCC5)CC4)cc23)c(C)c1 [Compound 163]
AgrA [1]; [5]
  IC50: < 17.3 µM
AgrA [1]; [6]
  IC50: 1.73 to 8.65 µM

## O=C(CN1CCN(c2ccc3c(=O)[nH]c4c(S(=O)(=O)c5ccc(C(F)(F)F)cc5)nnn4c3c2)CC1)N1CCCC1 [Compound 164]
AgrA [1]; [5]
  IC50: 17 to 84.8 µM
AgrA [1]; [6]
  IC50: 1.7 to 8.48 µM

## CC(C)c1ccc(S(=O)(=O)c2nnn3c2[nH]c(=O)c2ccc(N4CCN(CC(=O)N5CCCC5)CC4)cc23)cc1 [Compound 166]
AgrA [1]
  Ratio IC50 (in presence of HSA)/IC50 (in absence of HSA): ++ (++: 25 < ratio ≤ 125)
AgrA [1]; [7]
  IC50 at 40 mg/mL HSA: ++ (++: 10 μg/mL < IC50 ≤ 50 μg/mL)
AgrA [1]; [8]
  IC50 without HSA: +++ (+++: IC50 ≤ 1 μg/mL)

## Cc1ccc(S(=O)(=O)c2nnn3c2[nH]c(=O)c2ccc(N4CCCN(CCC(=O)N5CCOCC5)CC4)cc23)c(C)c1 [Compound 168]
AgrA [1]
  Ratio IC50 (in presence of HSA)/IC50 (in absence of HSA): +++ (+++: ratio ≤ 25)
AgrA [1]; [7]
  IC50 at 40 mg/mL HSA: +++ (+++: IC50 ≤ 10 μg/mL)
AgrA [1]; [8]
  IC50 without HSA: ++ (++: 1 μg/mL < IC50 ≤ 5 μg/mL)

## O=C(CN1CCN(c2ccc3c(=O)[nH]c4c(S(=O)(=O)c5ccc(C(F)(F)F)cc5)nnn4c3c2)CC1)N1CCOCC1 [Compound 169]
AgrA [1]; [5]
  IC50: 16.5 to 82.6 µM
AgrA [1]; [6]
  IC50: 1.65 to 8.26 µM

## Cc1ccc(S(=O)(=O)c2nnn3c2[nH]c(=O)c2ccc(N4CCN(CC(=O)NCCc5ccncc5)CC4)cc23)c(C)c1 [Compound 175]
AgrA [1]; [5]
  IC50: 16.6 to 83.2 µM
AgrA [1]; [6]
  IC50: < 1.66 µM

## CC(C)c1ccc(S(=O)(=O)c2nnn3c2nc(O)c2ccccc23)cc1 [Savirin]
S. aureus [2]
  resistance development: No resistance was developed
MRSA USA300 type strain
  abscess size and dermonecrosis: significant reduction
S. aureus [3]
  viability of S. aureus: without affecting viability
AgrA [4]
  modulation of AgrA-regulated toxin gene transcription (hla, psma, pvl): potent modulator
Red blood cell (RBC)
  exotoxin-induced red blood cell (RBC) lysis: inhibited
